Tests used:
Test in all cases: relative viability (nuclei count vs DMSO), 5 days (fraction); higher = more cells survive
HCC-827 = tested on: HCC-827
Summary of the method: (§1)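 Medians of duplicate plates are given as relative viability. That measure is the nuclei count in treated wells divided by the count in vehicle wells. Counts were taken on 4× images of lung cancer cell lines in 1536-well plates, 5 days after pin-tool dosing the day after seeding with one drug alone or a fixed anchor-drug dose plus five library-drug doses (not always all listed) in √10 steps.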

LCLC-97TM1 = tested on: LCLC-97TM1
Summary of the method: as §1

LCLC-103H = tested on: LCLC-103H
Summary of the method: as §1

NCI-H650 = tested on: NCI-H650
Summary of the method: as §1

NCI-H2023 = tested on: NCI-H2023
Summary of the method: as §1

NCI-H596 = tested on: NCI-H596
Summary of the method: as §1

NCI-H441 = tested on: NCI-H441
Summary of the method: as §1

HCC-78 = tested on: HCC-78
Summary of the method: as §1

NCI-H1437 = tested on: NCI-H1437
Summary of the method: as §1

201T = tested on: 201T
Summary of the method: as §1

SK-MES-1 = tested on: SK-MES-1
Summary of the method: as §1

RERF-LC-KJ = tested on: RERF-LC-KJ
Summary of the method: as §1

NCI-H2126 = tested on: NCI-H2126
Summary of the method: as §1

LOU-NH91 = tested on: LOU-NH91
Summary of the method: as §1

NCI-H727 = tested on: NCI-H727
Summary of the method: as §1

NCI-H2405 = tested on: NCI-H2405
Summary of the method: as §1

NCI-H1755 = tested on: NCI-H1755
Summary of the method: as §1

NCI-H2085 = tested on: NCI-H2085
Summary of the method: as §1

NCI-H1792 = tested on: NCI-H1792
Summary of the method: as §1

## COCC1(CO)C(=O)C2CCN1CC2 (stereo unspecified) [PRIMA-1MET] + C[C@]1(O)C[C@@H](c2nc(-c3ccc4ccc(-c5ccccc5)nc4c3)c3c(N)nccn32)C1 [Linsitinib] (partner 1 µM)
HCC-827; first compound 0.2 µM
  relative viability: 1.04
HCC-827; first compound 0.6325 µM
  relative viability: 0.884
HCC-827; first compound 2 µM
  relative viability: 0.698
HCC-827; first compound 6.325 µM
  relative viability: 0.962
HCC-827; first compound 20 µM
  relative viability: 0.906
LCLC-97TM1; first compound 0.2 µM
  relative viability: 0.213
LCLC-97TM1; first compound 2 µM
  relative viability: 0.183
LCLC-97TM1; first compound 6.325 µM
  relative viability: 0.199
LCLC-97TM1; first compound 20 µM
  relative viability: 0.117
LCLC-103H; first compound 0.2 µM
  relative viability: 1.24
LCLC-103H; first compound 0.6325 µM
  relative viability: 0.956
LCLC-103H; first compound 2 µM
  relative viability: 0.905
LCLC-103H; first compound 6.325 µM
  relative viability: 1.12
LCLC-103H; first compound 20 µM
  relative viability: 1.1
NCI-H650; first compound 0.2 µM
  relative viability: 1.13
NCI-H650; first compound 2 µM
  relative viability: 0.859
NCI-H650; first compound 6.325 µM
  relative viability: 0.674
NCI-H650; first compound 20 µM
  relative viability: 0.107
NCI-H2023; first compound 0.2 µM
  relative viability: 0.784
NCI-H2023; first compound 0.6325 µM
  relative viability: 0.65
NCI-H2023; first compound 2 µM
  relative viability: 0.7
NCI-H2023; first compound 6.325 µM
  relative viability: 0.668
NCI-H2023; first compound 20 µM
  relative viability: 0.609
NCI-H596; first compound 0.2 µM
  relative viability: 1.29
NCI-H596; first compound 0.6325 µM
  relative viability: 0.894
NCI-H596; first compound 2 µM
  relative viability: 0.972
NCI-H596; first compound 6.325 µM
  relative viability: 1.09
NCI-H596; first compound 20 µM
  relative viability: 1.14
NCI-H441; first compound 0.2 µM
  relative viability: 0.556
NCI-H441; first compound 0.6325 µM
  relative viability: 0.517
NCI-H441; first compound 2 µM
  relative viability: 0.458
NCI-H441; first compound 6.325 µM
  relative viability: 0.524
NCI-H441; first compound 20 µM
  relative viability: 0.24
HCC-78; first compound 0.2 µM
  relative viability: 0.658
HCC-78; first compound 0.6325 µM
  relative viability: 0.556
HCC-78; first compound 6.325 µM
  relative viability: 0.498
HCC-78; first compound 20 µM
  relative viability: 0.0559
NCI-H1437; first compound 0.2 µM
  relative viability: 1.08
NCI-H1437; first compound 0.6325 µM
  relative viability: 0.982
NCI-H1437; first compound 2 µM
  relative viability: 1.02
NCI-H1437; first compound 6.325 µM
  relative viability: 1.1
NCI-H1437; first compound 20 µM
  relative viability: 0.753
201T; first compound 0.2 µM
  relative viability: 1.11
201T; first compound 0.6325 µM
  relative viability: 1.05
201T; first compound 2 µM
  relative viability: 0.934
201T; first compound 6.325 µM
  relative viability: 1.11
201T; first compound 20 µM
  relative viability: 1
SK-MES-1; first compound 0.2 µM
  relative viability: 1.13
SK-MES-1; first compound 0.6325 µM
  relative viability: 1.04
SK-MES-1; first compound 2 µM
  relative viability: 1.02
SK-MES-1; first compound 6.325 µM
  relative viability: 1.05
SK-MES-1; first compound 20 µM
  relative viability: 1.11
RERF-LC-KJ; first compound 0.2 µM
  relative viability: 0.961
RERF-LC-KJ; first compound 0.6325 µM
  relative viability: 0.955
RERF-LC-KJ; first compound 2 µM
  relative viability: 0.832
RERF-LC-KJ; first compound 6.325 µM
  relative viability: 0.922
RERF-LC-KJ; first compound 20 µM
  relative viability: 0.875
NCI-H2126; first compound 0.2 µM
  relative viability: 0.726
NCI-H2126; first compound 0.6325 µM
  relative viability: 0.692
NCI-H2126; first compound 2 µM
  relative viability: 0.636
NCI-H2126; first compound 6.325 µM
  relative viability: 0.732
NCI-H2126; first compound 20 µM
  relative viability: 0.67
LOU-NH91; first compound 0.2 µM
  relative viability: 1.02
LOU-NH91; first compound 0.6325 µM
  relative viability: 0.771
LOU-NH91; first compound 2 µM
  relative viability: 0.773
LOU-NH91; first compound 6.325 µM
  relative viability: 1.01
LOU-NH91; first compound 20 µM
  relative viability: 0.582
NCI-H727; first compound 0.2 µM
  relative viability: 0.386
NCI-H727; first compound 0.6325 µM
  relative viability: 0.247
NCI-H727; first compound 2 µM
  relative viability: 0.301
NCI-H727; first compound 6.325 µM
  relative viability: 0.356
NCI-H727; first compound 20 µM
  relative viability: 0.169
NCI-H2405; first compound 0.2 µM
  relative viability: 0.635
NCI-H2405; first compound 0.6325 µM
  relative viability: 1.01
NCI-H2405; first compound 6.325 µM
  relative viability: 0.727
NCI-H2405; first compound 20 µM
  relative viability: 0.0877
NCI-H1755; first compound 0.2 µM
  relative viability: 0.979
NCI-H1755; first compound 0.6325 µM
  relative viability: 0.946
NCI-H1755; first compound 2 µM
  relative viability: 0.937
NCI-H1755; first compound 6.325 µM
  relative viability: 1.02
NCI-H1755; first compound 20 µM
  relative viability: 0.983
NCI-H2085; first compound 0.2 µM
  relative viability: 1
NCI-H2085; first compound 0.6325 µM
  relative viability: 0.826
NCI-H2085; first compound 2 µM
  relative viability: 0.866
NCI-H2085; first compound 6.325 µM
  relative viability: 0.731
NCI-H2085; first compound 20 µM
  relative viability: 0.287
NCI-H1792; first compound 0.2 µM
  relative viability: 0.521
NCI-H1792; first compound 0.6325 µM
  relative viability: 0.477
NCI-H1792; first compound 2 µM
  relative viability: 0.368
NCI-H1792; first compound 6.325 µM
  relative viability: 0.578
NCI-H1792; first compound 20 µM
  relative viability: 0.53

— the supplement of paper PMC10307832
